These results are taken from patent US12077503B2, “Substituted cyclic amides and their use as herbicides” (FMC CORPORATION, priority 2015, dated 2024).

Where two headings read alike, the source gives them in different places.

Common to all, as to assay: Test A preemergence
Format in all cases: in vivo

One experiment has as its system Kochia (Kochia scoparia). The following applies: Bassia scoparia, pre-emergence, 240 h; for pest or weed control at 125 g/ha: 125 g ai/ha; for pest or weed control at 500 g/ha: 500 g ai/ha. Summed up:
(§1)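 In a loam soil and sand blend, planted seeds got a preemergence directed soil spray, and young plants at the one- to two-leaf stage, 2–10 cm high, got a postemergence application; ~10 d greenhouse hold; injury rated visually, 0 = none, 100 = complete control.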

Experiment [1] relates to barnyardgrass (Echinochloa crus-galli). Particulars: Echinochloa crus-galli, pre-emergence, 240 h; for pest or weed control at 125 g/ha: 125 g ai/ha; for pest or weed control at 500 g/ha: 500 g ai/ha. The method in brief: as §1
In experiment [2] the test system is giant foxtail (Setaria faberii). Particulars: Setaria faberi, pre-emergence, 240 h; for pest or weed control at 125 g/ha: 125 g ai/ha; for pest or weed control at 500 g/ha: 500 g ai/ha. Summed up:
as §1

Experiment [3] has as its system pigweed (Amaranthus retroflexus). The following applies: Amaranthus retroflexus, pre-emergence, 240 h; for pest or weed control at 125 g/ha: 125 g ai/ha; for pest or weed control at 500 g/ha: 500 g ai/ha.
The test system of experiment [4] is ragweed (common ragweed, Ambrosia elatior). The following applies: Ambrosia artemisiifolia, pre-emergence, 240 h; for pest or weed control at 125 g/ha: 125 g ai/ha; for pest or weed control at 500 g/ha: 500 g ai/ha. The method in brief: as §1
Experiment [5] relates to ryegrass, Italian (Italian ryegrass, Lolium multiflorum). The following applies: Lolium multiflorum, pre-emergence, 240 h; for pest or weed control at 125 g/ha: 125 g ai/ha; for pest or weed control at 500 g/ha: 500 g ai/ha. Summed up:
as §1

The mark [6] stands for this setting: preemergence, visual rating after approx. 10 d, 0 to 100 scale where 0 is no effect and 100 is complete control, read-out: Plant response rating, Kochia.
Where [7] appears, read: preemergence, visual rating after approx. 10 d, 0 to 100 scale where 0 is no effect and 100 is complete control, read-out: Plant response rating, Barnyardgrass.
[8] abbreviates: preemergence, visual rating after approx. 10 d, 0 to 100 scale where 0 is no effect and 100 is complete control, read-out: Plant response rating, Foxtail, Giant.
[9] abbreviates: preemergence, visual rating after approx. 10 d, 0 to 100 scale where 0 is no effect and 100 is complete control, read-out: Plant response rating, Pigweed.
Where [10] appears, read: preemergence, visual rating after approx. 10 d, 0 to 100 scale where 0 is no effect and 100 is complete control, read-out: Plant response rating, Ragweed.
[11] abbreviates: preemergence, visual rating after approx. 10 d, 0 to 100 scale where 0 is no effect and 100 is complete control, read-out: Plant response rating, Ryegrass, Italian.
The mark [12] stands for this setting: preemergence, 0 to 100 scale, 0 = no effect, 100 = complete control, read-out: Plant response rating, Barnyardgrass.
[13] abbreviates: preemergence, 0 to 100 scale, 0 = no effect, 100 = complete control, read-out: Plant response rating, Foxtail, Giant.
Where [14] appears, read: preemergence, 0 to 100 scale, 0 = no effect, 100 = complete control, read-out: Plant response rating, Pigweed.
The mark [15] stands for this setting: preemergence, 0 to 100 scale, 0 = no effect, 100 = complete control, read-out: Plant response rating, Ragweed.
Where [16] appears, read: preemergence, 0 to 100 scale, 0 = no effect, 100 = complete control, read-out: Plant response rating, Ryegrass, Italian.

On to `CN1C[C@H](c2ccc(OC(F)F)cc2)[C@@H](C(=O)Nc2ccccc2S(C)(=O)=O)C1=O` [Compound 788], for which the pest or weed control at 125 g/ha in the experiment on Kochia (Kochia scoparia) (setting [6]) worked out at 80%; in experiment [1] (setting [7]) it was 90%; in experiment [2] (setting [8]) it was 90%; in experiment [3] (setting [9]), 80%; in experiment [4] (setting [10]), 80%; in experiment [5] (setting [11]), 0%. Further, the pest or weed control at 500 g/ha is 80% in the experiment on Kochia (Kochia scoparia) (Preemergence, visual injury vs untreated controls after approximately 10 d, read-out: Kochia plant response rating (0 to 100 scale where 0 is no effect and 100 is complete control)); 90% in experiment [1] (Preemergence, visual injury vs untreated controls after approximately 10 d, read-out: Barnyardgrass plant response rating (0 to 100 scale where 0 is no effect and 100 is complete control)); 100% in experiment [2] (Preemergence, visual injury vs untreated controls after approximately 10 d, read-out: Foxtail, Giant plant response rating (0 to 100 scale where 0 is no effect and 100 is complete control)); 90% in experiment [3] (Preemergence, visual injury vs untreated controls after approximately 10 d, read-out: Pigweed plant response rating (0 to 100 scale where 0 is no effect and 100 is complete control)); 90% in experiment [4] (Preemergence, visual injury vs untreated controls after approximately 10 d, read-out: Ragweed plant response rating (0 to 100 scale where 0 is no effect and 100 is complete control)); 40% in experiment [5] (Preemergence, visual injury vs untreated controls after approximately 10 d, read-out: Ryegrass, Italian plant response rating (0 to 100 scale where 0 is no effect and 100 is complete control)).

`CN1C[C@H](c2csc3ccccc23)[C@@H](C(=O)Nc2ccccc2F)C1=O` [Compound 1114]: the pest or weed control at 500 g/ha with Kochia (Kochia scoparia) (preemergence, 0 to 100 scale where 0 is no effect and 100 is complete control, read-out: Kochia plant response rating) stood at 60%; in experiment [1] (preemergence, visual injury rating about 10 d after treatment, 0 to 100 scale (0 no effect, 100 complete control), read-out: Barnyardgrass plant response rating), 90%; in experiment [2] (preemergence, 0 to 100 scale where 0 is no effect and 100 is complete control, read-out: Foxtail, Giant plant response rating) it was 90%; in experiment [3] (preemergence, 0 to 100 scale where 0 is no effect and 100 is complete control, read-out: Pigweed plant response rating), 0%; in experiment [4] (preemergence, 0 to 100 scale where 0 is no effect and 100 is complete control, read-out: Ragweed plant response rating), 0%; in experiment [5] (preemergence, 0 to 100 scale where 0 is no effect and 100 is complete control, read-out: Ryegrass, Italian plant response rating), 20%. Further, the pest or weed control at 125 g/ha in experiment [1] (preemergence, 0 to 100 scale where 0 is no effect and 100 is complete control, approx. 10 d, read-out: Barnyardgrass plant response rating) is 90%; in experiment [2] (preemergence, 0 to 100 scale where 0 is no effect and 100 is complete control, approx. 10 d, read-out: Foxtail, Giant plant response rating), 90%; in experiment [3] (preemergence, 0 to 100 scale where 0 is no effect and 100 is complete control, approx. 10 d, read-out: Pigweed plant response rating) it was 0%; in experiment [4] (preemergence, 0 to 100 scale where 0 is no effect and 100 is complete control, approx. 10 d, read-out: Ragweed plant response rating), 0%; in experiment [5] (preemergence, 0 to 100 scale where 0 is no effect and 100 is complete control, approx. 10 d, read-out: Ryegrass, Italian plant response rating), 0%.

Take `Cc1ccc([C@H]2CN(C)C(=O)[C@@H]2C(=O)Nc2cccc(F)c2F)c(F)c1` [Compound 730]: the pest or weed control at 125 g/ha came to 70% in the experiment with Kochia (Kochia scoparia) (setting [6]); 90% in experiment [1] (setting [7]); 90% in experiment [2] (setting [8]); 30% in experiment [3] (setting [9]); 50% in experiment [4] (setting [10]); 20% in experiment [5] (setting [11]). Also, the pest or weed control at 500 g/ha with Kochia (Kochia scoparia) (preemergence, 0 to 100 scale, 0 = no effect, 100 = complete control, read-out: Plant response rating, Kochia) came to 80%; in experiment [1] (setting [12]), 100%; in experiment [2] (setting [13]) it was 100%; in experiment [3] (setting [14]), 50%; in experiment [4] (setting [15]) it was 60%; in experiment [5] (setting [16]), 70%.

In the case of `CSc1ccccc1NC(=O)[C@H]1C(=O)N(C)C[C@@H]1c1ccc(C(F)(F)F)cc1` [Compound 1391], the pest or weed control at 500 g/ha with Kochia (Kochia scoparia) (preemergence, 0 to 100 scale (0 no effect, 100 complete control), read-out: Plant response rating, Kochia) is 90%; in experiment [1] (preemergence, 0 to 100 scale (0 no effect, 100 complete control), read-out: Plant response rating, Barnyardgrass), 100%; in experiment [2] (preemergence, 0 to 100 scale (0 no effect, 100 complete control), read-out: Plant response rating, Foxtail, Giant) it was 100%; in experiment [3] (preemergence, 0 to 100 scale (0 no effect, 100 complete control), read-out: Plant response rating, Pigweed), 90%; in experiment [4] (preemergence, 0 to 100 scale (0 no effect, 100 complete control), read-out: Plant response rating, Ragweed), 90%; in experiment [5] (preemergence, 0 to 100 scale (0 no effect, 100 complete control), read-out: Plant response rating, Ryegrass, Italian) it was 70%. The pest or weed control at 125 g/ha in the experiment on Kochia (Kochia scoparia) (Preemergence, 0 to 100 scale (0 no effect, 100 complete control), read-out: Plant response rating, Kochia) was 90%; in experiment [1] (Preemergence, 0 to 100 scale (0 no effect, 100 complete control), read-out: Plant response rating, Barnyardgrass), 90%; in experiment [2] (Preemergence, 0 to 100 scale (0 no effect, 100 complete control), read-out: Plant response rating, Foxtail, Giant), 100%; in experiment [3] (Preemergence, 0 to 100 scale (0 no effect, 100 complete control), read-out: Plant response rating, Pigweed), 90%; in experiment [4] (Preemergence, 0 to 100 scale (0 no effect, 100 complete control), read-out: Plant response rating, Ragweed), 90%; in experiment [5] (Preemergence, 0 to 100 scale (0 no effect, 100 complete control), read-out: Plant response rating, Ryegrass, Italian) it was 30%.

For the compound `O=C1NC[C@H](c2csc3ccccc23)[C@H]1C(=O)Nc1cccc(F)c1F` [Compound 751], the pest or weed control at 125 g/ha with Kochia (Kochia scoparia) (setting [6]) turned out to be 20%; in experiment [1] (setting [7]), 90%; in experiment [2] (setting [8]), 80%; in experiment [3] (setting [9]), 0%; in experiment [4] (setting [10]) it was 20%; in experiment [5] (setting [11]), 0%. The pest or weed control at 500 g/ha in experiment [1] (setting [12]) worked out at 90%; in experiment [2] (setting [13]), 90%; in experiment [3] (setting [14]), 0%; in experiment [4] (setting [15]) it was 40%; in experiment [5] (setting [16]), 20%.
